Patent US8563729B2, “Thienopyridone derivatives as AMP-activated protein kinase (AMPK) activators” (Merck Patent GmbH, priority 2008, dated 2013)

Key:
[1] = target: T1, AMPK protein (recombinant α1β1γ2) (Homo sapiens, UniProt Q13131+Q9Y478); assay: AMPK enzymatic activity (Delfia, AMARA peptide substrate); format: biochemical; details: compound 30 μM vs AMP 30 μM; 125 μM ATP; ratio 90% or higher = direct activator
T1 construct: made in house; host or cells: E. coli
Procedure, shortened: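 Human α1β1γ2 AMPK expressed in E. coli, reactivated in vitro by LKB1, assayed in 50 mM Hepes pH 7.4 with 125 μM ATP and AMARA peptide for 30 min at room temperature; phosphorylation detected by Delfia anti-phosphoserine antibody. Activity = % of basal control at 30 μM compound relative to that of 30 μM AMP.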

H-2 Kb cells = assay: Glucose uptake in H-2 Kb cells (in vitro cellular test); format: cell-based, mouse; details: H-2 Kb cells differentiated in muscle, 4 hours incubation, 2-deoxy-D-[1,2 3H] glucose uptake 10 min
Experimental: Glucose Uptake in H-2 Kb Cells (In Vitro Cellular Test)
The following cellular test allows the determination of the effect of AMPK activators such as compounds of formula (I) onto glucose uptake in a muscle cellular model.
H-1-2 Kb cells derived from heterozygous H-2 Kb tsA58 transgenic mouse were grown in 24-well in plates coated with matrigel and were cultured at 33° C. for 4 days under permissive conditions, as described previously by Fryer et al. (Diabetes 49 (12): 1978, 2000).
For differentiation in muscle, cells were switched to non-permissive culture conditions (37° C. in the absence of interferon-γ). After 3 days, cells were incubated for 4 hours in DMEM 1 g/l glucose culture medium containing different concentrations of the tested molecules. Then glucose uptake was measured by incubating the cells for 10 min with radiolabelled 2-deoxy-D-[1,2 ^3H] glucose. Glucose uptake was terminated by rapidly washing the plates 2 times with ice-cold NaCl 0.9%. The cells were then solubilized in 0.1N NaOH for 30 min. Radioactivity was determined by liquid scintillation counting.
N°: Number of the molecule
Activity (table III): Concentration of compound (I) for a glucose uptake equal or higher to glucose uptake induced by insulin (170 nM)
^++ or **concentration of compound (I) ≦10 micro Molar
^+ or *concentration of compound (I) >10 micro Molar

T1 sequence (Q13131 whole entry): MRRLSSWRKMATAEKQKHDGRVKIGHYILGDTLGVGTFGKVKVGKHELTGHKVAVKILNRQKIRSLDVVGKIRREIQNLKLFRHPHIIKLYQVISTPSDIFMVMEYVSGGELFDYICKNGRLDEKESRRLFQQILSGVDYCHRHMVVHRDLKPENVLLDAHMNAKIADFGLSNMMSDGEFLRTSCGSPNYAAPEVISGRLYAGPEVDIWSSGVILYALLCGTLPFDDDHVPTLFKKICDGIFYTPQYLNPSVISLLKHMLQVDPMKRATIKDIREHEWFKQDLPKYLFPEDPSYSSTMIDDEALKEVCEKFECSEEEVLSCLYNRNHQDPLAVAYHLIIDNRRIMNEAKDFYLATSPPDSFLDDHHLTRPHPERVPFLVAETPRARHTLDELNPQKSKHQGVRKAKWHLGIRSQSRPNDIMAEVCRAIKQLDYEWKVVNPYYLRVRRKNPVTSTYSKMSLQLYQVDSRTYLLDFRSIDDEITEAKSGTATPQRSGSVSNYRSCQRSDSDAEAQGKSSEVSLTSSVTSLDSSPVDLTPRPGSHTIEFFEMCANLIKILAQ
T1 sequence (Q9Y478 whole entry): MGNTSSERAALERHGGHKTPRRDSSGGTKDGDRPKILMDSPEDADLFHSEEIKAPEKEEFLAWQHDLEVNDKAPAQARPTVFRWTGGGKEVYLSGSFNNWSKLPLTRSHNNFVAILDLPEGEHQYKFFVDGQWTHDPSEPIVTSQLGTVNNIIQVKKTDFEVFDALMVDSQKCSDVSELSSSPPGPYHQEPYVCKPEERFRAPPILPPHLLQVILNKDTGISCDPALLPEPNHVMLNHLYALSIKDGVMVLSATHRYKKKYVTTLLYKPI
T1 sequence (Q9UGJ0 whole entry partner): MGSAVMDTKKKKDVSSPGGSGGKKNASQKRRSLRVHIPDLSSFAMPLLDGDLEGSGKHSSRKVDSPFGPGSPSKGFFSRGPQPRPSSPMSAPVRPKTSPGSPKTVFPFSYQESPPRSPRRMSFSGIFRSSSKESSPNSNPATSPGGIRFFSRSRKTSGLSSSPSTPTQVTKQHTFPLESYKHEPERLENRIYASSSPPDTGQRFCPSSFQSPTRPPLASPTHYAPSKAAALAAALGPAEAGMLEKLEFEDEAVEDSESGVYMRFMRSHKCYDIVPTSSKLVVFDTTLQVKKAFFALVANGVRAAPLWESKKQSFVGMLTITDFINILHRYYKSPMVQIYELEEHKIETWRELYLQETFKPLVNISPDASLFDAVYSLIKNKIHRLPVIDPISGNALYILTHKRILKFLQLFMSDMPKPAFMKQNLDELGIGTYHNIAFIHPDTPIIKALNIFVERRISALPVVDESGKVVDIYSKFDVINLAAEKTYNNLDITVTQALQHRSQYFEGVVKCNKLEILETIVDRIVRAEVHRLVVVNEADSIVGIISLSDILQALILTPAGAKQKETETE

activity: Ratio between the % of control (basal activity) of compound of formula (I) at 30 μM and the % of control (basal activity) of AMP at 30 μM [1] | Structure (SMILES) | Activity (table III): Concentration of compound (I) for a glucose uptake equal or higher to glucose uptake induced by insulin (170 nM) (H-2 Kb cells)
238% | O=c1[nH]c2sc(Cl)c(-c3ccccc3)c2c(O)c1-c1ccccc1F [Compound 165] | + (^+ or *concentration of compound (I) >10 micro Molar)
225% | O=c1[nH]c2sc(Cl)c(-c3ccccc3)c2c(O)c1-c1cccnc1 [Compound 166] | + (^+ or *concentration of compound (I) >10 micro Molar)
592% | COc1ccc(-c2c(O)c3c(-c4ccccc4)c(Cl)sc3[nH]c2=O)cn1 [Compound 167] | ++ (^++ or **concentration of compound (I) ≦10 micro Molar)
174% | O=c1[nH]c2sc(Cl)c(-c3ccccc3)c2c(O)c1-c1cccs1 [Compound 168] | ++ (^++ or **concentration of compound (I) ≦10 micro Molar)
196% | O=c1[nH]c2sc(Cl)c(-c3ccccc3)c2c(O)c1-c1ccsc1 [Compound 169] | ++ (^++ or **concentration of compound (I) ≦10 micro Molar)
147% | O=c1[nH]c2sc(Cl)c(-c3ccccc3)c2c(O)c1-c1ccc(C(F)(F)F)cc1 [Compound 171] | + (^+ or *concentration of compound (I) >10 micro Molar)
153% | O=c1[nH]c2sc(Cl)c(-c3ccccc3)c2c(O)c1-c1ccc(F)cc1 [Compound 172] | + (^+ or *concentration of compound (I) >10 micro Molar)
160% | O=c1[nH]c2sc(Cl)c(-c3ccccc3)c2c(O)c1-c1ccc(Cl)cc1 [Compound 173] | ++ (^++ or **concentration of compound (I) ≦10 micro Molar)
245% | Cc1ccc(-c2c(O)c3c(-c4ccccc4)c(Cl)sc3[nH]c2=O)cc1 [Compound 174] | + (^+ or *concentration of compound (I) >10 micro Molar)
252% | O=c1[nH]c2sc(Cl)c(-c3ccccc3)c2c(O)c1-c1cccc(F)c1 [Compound 175] | + (^+ or *concentration of compound (I) >10 micro Molar)
245% | Cc1cccc(-c2c(O)c3c(-c4ccccc4)c(Cl)sc3[nH]c2=O)c1 [Compound 176] | ++ (^++ or **concentration of compound (I) ≦10 micro Molar)
234% | COc1ccc(-c2c(O)c3c(-c4ccccc4)c(Cl)sc3[nH]c2=O)cc1OC [Compound 177] | ++ (^++ or **concentration of compound (I) ≦10 micro Molar)
138% | O=c1[nH]c2sc(Cl)c(-c3ccc(Cl)cc3)c2c(O)c1-c1ccccc1 [Compound 178] | ++ (^++ or **concentration of compound (I) ≦10 micro Molar)
559% | CCc1ccc(-c2c(Cl)sc3[nH]c(=O)c(-c4ccccc4)c(O)c23)cc1 [Compound 181] | ++ (^++ or **concentration of compound (I) ≦10 micro Molar)
165% | CC(C)c1ccc(-c2c(Cl)sc3[nH]c(=O)c(-c4ccccc4)c(O)c23)cc1 [Compound 182] | + (^+ or *concentration of compound (I) >10 micro Molar)
146% | CCCc1ccc(-c2c(Cl)sc3[nH]c(=O)c(-c4ccccc4)c(O)c23)cc1 [Compound 183] | + (^+ or *concentration of compound (I) >10 micro Molar)
167% | O=c1[nH]c2sc(Cl)c(-c3ccc4c(Cl)cccc4c3O)c2c(O)c1-c1ccccc1 [Compound 184] | ++ (^++ or **concentration of compound (I) ≦10 micro Molar)
284% | O=c1[nH]c2sc(Cl)c(-c3ccc4ccccc4c3O)c2c(O)c1-c1ccc(F)cc1 [Compound 185] | ++ (^++ or **concentration of compound (I) ≦10 micro Molar)
192% | Cc1ccc(-c2c(O)c3c(-c4ccc5ccccc5c4O)c(Cl)sc3[nH]c2=O)cc1 [Compound 186] | ++ (^++ or **concentration of compound (I) ≦10 micro Molar)
124% | COc1cc(F)ccc1-c1c(Cl)sc2[nH]c(=O)c(-c3ccccc3)c(O)c12 [Compound 187] | + (^+ or *concentration of compound (I) >10 micro Molar)
183% | Cc1ccc(-c2c(O)c3c(-c4ccc(F)cc4O)csc3[nH]c2=O)cc1 [Compound 188] | + (^+ or *concentration of compound (I) >10 micro Molar)
175% | COc1ccc(F)cc1-c1c(Cl)sc2[nH]c(=O)c(-c3ccccc3)c(O)c12 [Compound 189] | + (^+ or *concentration of compound (I) >10 micro Molar)
256% | COc1ccc(-c2c(Cl)sc3[nH]c(=O)c(-c4ccccc4)c(O)c23)cc1OC [Compound 190] | + (^+ or *concentration of compound (I) >10 micro Molar)
187% | COc1ccc(-c2c(O)c3c(-c4ccc(F)cc4O)csc3[nH]c2=O)cc1 [Compound 191] | + (^+ or *concentration of compound (I) >10 micro Molar)
193% | Cc1ccc(-c2c(Cl)sc3[nH]c(=O)c(-c4cccc(C(=O)O)c4)c(O)c23)c(O)c1 [Compound 192] | ++ (^++ or **concentration of compound (I) ≦10 micro Molar)
139% | O=c1[nH]c2sc(Cl)c(-c3cc(F)c(F)cc3O)c2c(O)c1-c1ccccc1 [Compound 193] | + (^+ or *concentration of compound (I) >10 micro Molar)
183% | Cc1ccc(-c2c(O)c3c(-c4ccc(C)cc4O)c(Cl)sc3[nH]c2=O)cc1 [Compound 194] | ++ (^++ or **concentration of compound (I) ≦10 micro Molar)
156% | Cc1ccc(-c2c(Cl)sc3[nH]c(=O)c(-c4cccnc4)c(O)c23)c(O)c1 [Compound 195] | + (^+ or *concentration of compound (I) >10 micro Molar)
